Where a SMILES comes first, the peptide text is derived from it. Where no end group is shown, it is not given here. The star is where a group is joined. Palmitoyl = CCCCCCCCCCCCCCCC(=O)*
Key:
PAR1 = target: T1, PAR1 (Homo sapiens, UniProt P25116); assay: InsP formation (PLC-β) in Rat1 fibroblasts expressing human PAR1; assay type: cell-based
T1 construct: expressed in transfected cells
T1 sequence (P25116 22-425): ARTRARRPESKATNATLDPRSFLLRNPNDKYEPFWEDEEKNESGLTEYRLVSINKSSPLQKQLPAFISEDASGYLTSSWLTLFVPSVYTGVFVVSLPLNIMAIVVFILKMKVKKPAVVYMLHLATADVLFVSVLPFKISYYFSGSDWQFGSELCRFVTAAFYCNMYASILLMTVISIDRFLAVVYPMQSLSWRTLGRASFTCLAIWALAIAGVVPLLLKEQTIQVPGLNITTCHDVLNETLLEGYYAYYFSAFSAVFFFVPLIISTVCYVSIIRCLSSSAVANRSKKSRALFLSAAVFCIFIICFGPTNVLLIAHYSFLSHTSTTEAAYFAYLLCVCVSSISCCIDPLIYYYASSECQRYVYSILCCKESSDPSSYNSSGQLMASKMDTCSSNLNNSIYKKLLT

platelets = assay: Platelet intracellular Ca2+, agonist activity of peptides

In the case of “INLKALAALAKKIL [mastoparan, reference compound]”, the “stimulation of InsP production (agonist activity)” value (PAR1) is reported as “did not stimulate InsP production”.
With RSLSSSAVANRSKKSRALF [Pepducin P1-i3-19] the “agonist activity, platelet intracellular Ca2+” value (platelets) was “causes little stimulation of Ca^2+ fluxes”.
For “VPLIISTVCYVSIIRCLSSSAVANRSKKSRALF [Pepducin P1-i3-33]”, the “agonist activity, platelet intracellular Ca2+” value (platelets) was “has similar potency to the P1-i3-40 peptide”.
“VCYVSIIRSLSSSAVANRSKKSRALF [Pepducin P1-i3-26]” was tested, and the “agonist activity, platelet intracellular Ca2+” value (platelets) was “gives a minor, unregulated Ca^2+i response”.
With “Y12pal-18: pepducin based on the i3-loop of P2Y12; peptide YVRTRGVGKVPRKKVNVF (SEQ ID NO:33) (also: palmitoyl lipid, position not given here) [Pepducin Y12pal-18]” the “agonist activity in platelet aggregation” value (human platelets) was “no agonist activity”.
`CCCCCCCCCCCCCCCC(=O)O` [Palmitic acid, reference compound] was tested, and the “agonist activity in platelet aggregation” value (human platelets) was “has no effect” and the “agonist activity, platelet intracellular Ca2+” value (platelets) was “has no effect”.
`CCCCCCCCCCCCCCCC(=O)N[C@@H](CCCNC(=N)N)C(=O)N[C@@H](CS)C(=O)N[C@@H](CC(C)C)C(=O)N[C@@H](CO)C(=O)N[C@@H](CO)C(=O)N[C@@H](CO)C(=O)N[C@@H](C)C(=O)N[C@H](C(=O)N[C@@H](C)C(=O)N[C@@H](CC(N)=O)C(=O)N[C@@H](CCC(N)=O)C(=O)N[C@@H](CO)C(=O)N[C@@H](CCC(N)=O)C(=O)N[C@@H](CCC(N)=O)C(=O)N[C@@H](CO)C(=O)N[C@@H](CCC(N)=O)C(=O)N[C@@H](C)C(=O)N[C@@H](CC(C)C)C(=O)N[C@@H](Cc1ccccc1)C(N)=O)C(C)C` [Pepducin P1pal-19Q] (Palmitoyl-RCLSSSAVANQSQQSQALF-NH2) was tested, and the “Agonist Efficacy” value (PAR1) was 46 ± 8%, the “loss in efficacy, stimulation of InsP” value (PAR1) was 2 fold and the “loss in efficacy, platelet aggregation” value (human platelets; relative to P1pal-19) was 2 fold.
“FSAVFFFVPL1ISTVCYVSI1RCLSSSAVANRSKKSRALF (FSAVFFFVPLIISTVCYVSIIRCLSSSAVANRSKKSRALF) [Pepducin P1-i3-40]” was tested, and the “agonist activity, platelet intracellular Ca2+” value (platelets) was “causes a rapid intracellular Ca^2+ transient” and the “lag phase of Ca2+i transient” value (platelets) was under 5 s.
With `CCCCCCCCCCCCCCCC(=O)N[C@@H](CCCNC(=N)N)C(=O)N[C@@H](CS)C(=O)N[C@@H](CCC(=O)O)C(=O)N[C@@H](CO)C(=O)N[C@@H](CO)C(=O)N[C@@H](CO)C(=O)N[C@@H](C)C(=O)N[C@@H](CCC(=O)O)C(=O)N[C@@H](C)C(=O)N[C@@H](CC(N)=O)C(=O)N[C@@H](CCCNC(=N)N)C(=O)N[C@@H](CO)C(=O)N[C@@H](CCCCN)C(=O)N[C@@H](CCCCN)C(=O)N[C@@H](CCC(=O)O)C(=O)N[C@@H](CCCNC(=N)N)C(=O)N[C@@H](CCC(=O)O)C(=O)N[C@@H](CC(C)C)C(=O)N[C@@H](Cc1ccccc1)C(N)=O` [Pepducin P1pal-19E] (Palmitoyl-RCESSSAEANRSKKERELF-NH2) the “Agonist Efficacy” value (PAR1) was 11 ± 1%, the “loss of agonist activity” value (PAR1) was about 90% and the IC50 (PAR1; Antagonist IC50) was over 50 µM.

From patent US8324172B2, “G protein coupled receptor agonists and antagonists and methods of activating and inhibiting G protein coupled receptors using the same” (Tufts Medical Center, Inc., priority 2000, dated 2012)
